Reference: patent US20210253575A1, “PYRROLIDINE AMINE COMPOUNDS FOR THE TREATMENT OF AUTOIMMUNE DISEASE” (Hoffmann-La Roche Inc., priority 2018, published 2021)
pIC50: −log10 of the molar value.

Biological target: T1, human TLR7 (Homo sapiens, UniProt Q9NYK1)
T1 sequence (Q9NYK1 27-1049): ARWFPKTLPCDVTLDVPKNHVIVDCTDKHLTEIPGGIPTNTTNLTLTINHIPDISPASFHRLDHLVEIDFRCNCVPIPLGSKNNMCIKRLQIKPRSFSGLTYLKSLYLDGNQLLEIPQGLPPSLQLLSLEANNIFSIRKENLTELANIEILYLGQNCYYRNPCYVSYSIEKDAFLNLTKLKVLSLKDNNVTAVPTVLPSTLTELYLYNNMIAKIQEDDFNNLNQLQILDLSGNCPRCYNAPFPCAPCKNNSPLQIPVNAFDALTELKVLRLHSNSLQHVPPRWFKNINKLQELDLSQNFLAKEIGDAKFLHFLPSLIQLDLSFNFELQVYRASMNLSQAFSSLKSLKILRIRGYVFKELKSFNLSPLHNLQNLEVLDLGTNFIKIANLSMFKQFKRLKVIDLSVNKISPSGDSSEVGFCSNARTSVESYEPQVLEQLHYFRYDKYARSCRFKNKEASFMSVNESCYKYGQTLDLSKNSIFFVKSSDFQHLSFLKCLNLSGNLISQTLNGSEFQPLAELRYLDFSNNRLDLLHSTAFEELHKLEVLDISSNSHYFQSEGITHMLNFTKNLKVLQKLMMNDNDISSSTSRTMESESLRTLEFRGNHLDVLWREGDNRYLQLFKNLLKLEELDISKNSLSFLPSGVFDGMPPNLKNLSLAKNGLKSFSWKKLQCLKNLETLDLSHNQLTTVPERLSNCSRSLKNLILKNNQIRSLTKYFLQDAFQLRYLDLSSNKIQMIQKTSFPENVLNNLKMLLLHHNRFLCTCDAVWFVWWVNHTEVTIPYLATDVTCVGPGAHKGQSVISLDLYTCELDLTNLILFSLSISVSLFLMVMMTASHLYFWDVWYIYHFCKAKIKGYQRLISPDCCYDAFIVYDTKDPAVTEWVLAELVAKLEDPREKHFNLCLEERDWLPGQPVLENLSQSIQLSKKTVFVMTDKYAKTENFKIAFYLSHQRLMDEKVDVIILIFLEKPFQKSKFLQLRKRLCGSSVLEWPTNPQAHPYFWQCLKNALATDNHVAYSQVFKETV
Experiment: HEK293-Blue-hTLR-7 cells assay (SEAP reporter, R848 stimulation)
Assay type: cell-based
Settings: HEK293-Blue-hTLR7 cells, R848 ligand, 20 hrs incubation
Procedure: The following tests were carried out in order to determine the activity of the compounds of formula (I) in HEK293-Blue-hTLR-7/8/9 cells assay.
HEK293-Blue-hTLR-7 Cells Assay:
A stable HEK293-Blue-hTLR-7 cell line was purchased from InvivoGen (Cat. #: hkb-htlr7, San Diego, Calif., USA). These cells were originally designed for studying the stimulation of human TLR7 by monitoring the activation of NF-κB. A SEAP (secreted embryonic alkaline phosphatase) reporter gene was placed under the control of the IFN-β minimal promoter fused to five NF-κB and AP-1-binding sites. The SEAP was induced by activating NF-κB and AP-1 via stimulating HEK-Blue hTLR7 cells with TLR7 ligands. Therefore the reporter expression was declined by TLR7 antagonist under the stimulation of a ligand, such as R848 (Resiquimod), for incubation of 20 hrs. The cell culture supernatant SEAP reporter activity was determined using QUANTI-Blue™ kit (Cat. #: rep-qb1, Invivogen, San Diego, Ca, USA) at a wavelength of 640 nm, a detection medium that turns purple or blue in the presence of alkaline phosphatase.
HEK293-Blue-hTLR7 cells were incubated at a density of 250,000-450,000 cells/mL in a volume of 170 μL in a 96-well plate in Dulbecco's Modified Eagle's medium (DMEM) containing 4.5 g/L glucose, 50 U/mL penicillin, […], […], 2 mM L-glutamine, 10% (v/v) heat-inactivated fetal bovine serum with addition of 20 μL test compound in a serial dilution in the presence of final DMSO at 1% and 10 μL of 20 uM R848 in above DMEM, perform incubation under 37° C. in a CO2 incubator for 20 hrs. Then 20 μL of the supernatant from each well was incubated with 180 μL Quanti-blue substrate solution at 37° C. for 2 hrs and the absorbance was read at 620-655 nm using a spectrophotometer. The signalling pathway that TLR7 activation leads to downstream NF-κB activation has been widely accepted, and therefore similar reporter assay was modified for evaluating TLR7 antagonist.

`C[C@H]1CN(C[C@H]2CN(c3ccc(C#N)c4nccnc34)C[C@@H]2C(F)(F)F)CC[C@H]1N` [Example 72, 8-[(3S,4R)-3-[[(3S,4R)-4-amino-3-methyl-1-piperidyl]methyl]-4-(trifluoromethyl)pyrrolidin-1-yl]quinoxaline-5-carbonitrile] and `CN(C)C1CCN(C[C@H]2CN(c3ccc(C#N)c4nccnc34)C[C@@H]2C(F)(F)F)CC1` [Example 80, 8-[(3S,4R)-3-[[4-(dimethylamino)-1-piperidyl]methyl]-4-(trifluoromethyl)pyrrolidin-1-yl]quinoxaline-5-carbonitrile] are within 0.2 log units of each other in pIC50: 7.89 for the first, 7.85 for the second.

First: N#Cc1ccc(N2CC(CN3CC4(CCCNC4)C3)C3(CC3)C2)c2nccnc12 (stereo not drawn) [Example 24, 8-[7-(2,8-Diazaspiro[3.5]nonan-2-ylmethyl)-5-azaspiro[2.4]heptan-5-yl]quinoxaline-5-carbonitrile]
Second: CC1(N)CCN(CC2CN(c3ccc(C#N)c4nccnc34)CC23CC3)CC1 (stereo not drawn) [Example 7, 8-[7-[(4-Amino-4-methyl-1-piperidyl)methyl]-5-azaspiro[2.4]heptan-5-yl]quinoxaline-5-carbonitrile]
The pIC50 of the first is 0.74 log units lower: 6.53 for the first, 7.27 for the second.

Compared with `N#Cc1ccc(N2C[C@H](CN3CCC4(CCNC4)CC3)[C@@H](C(F)(F)F)C2)c2cccnc12` [Example 54, 5-[(3S,4R)-3-(2,8-Diazaspiro[4.5]decan-8-ylmethyl)-4-(trifluoromethyl)pyrrolidin-1-yl]quinoline-8-carbonitrile], `N#Cc1ccc(N2C[C@H](CN3CCC4(CCCNC4)CC3)[C@@H](C(F)(F)F)C2)c2nccnc12` [Example 45, 8-[(3S,4R)-3-(2,9-diazaspiro[5.5]undecan-9-ylmethyl)-4-(trifluoromethyl)pyrrolidin-1-yl]quinoxaline-5-carbonitrile] is 0.27 log units higher in pIC50: 7.04 for the first, 7.31 for the second. The second is the more potent here.

`N#Cc1ccc(N2C[C@H](CN3CC4CNCC4C3)[C@@H](C(F)(F)F)C2)c2nccnc12` (stereo partly drawn) [Example 76, 8-[(3S,4R)-3-(2,3,3a,4,6,6a-hexahydro-1H-pyrrolo[3,4-c]pyrrol-5-ylmethyl)-4-(trifluoromethyl)pyrrolidin-1-yl]quinoxaline-5-carbonitrile] and `N#Cc1ccc(N2C[C@H](CN3CCNCC3)[C@@H](C(F)(F)F)C2)c2nccnc12` [Example 59, 8-[(3S,4R)-3-(Piperazin-1-ylmethyl)-4-(trifluoromethyl)pyrrolidin-1-yl]quinoxaline-5-carbonitrile] are within 0.2 log units of each other in pIC50: 7.68 for the first, 7.74 for the second.

Going from `N#Cc1ccc(N2C[C@H](CN3CCCC(F)(CN)C3)[C@@H](C(F)(F)F)C2)c2nccnc12` (stereo partly drawn) [Example 78, 8-[(3S,4R)-3-[[3-(aminomethyl)-3-fluoro-1-piperidyl]methyl]-4-(trifluoromethyl)pyrrolidin-1-yl]quinoxaline-5-carbonitrile] to `N#Cc1ccc(N2C[C@H](CN3CC4(CC(N)C4)C3)[C@@H](C(F)(F)F)C2)c2nccnc12` [Example 47, 8-[(3S,4R)-3-[(6-amino-2-azaspiro[3.3]heptan-2-yl)methyl]-4-(trifluoromethyl)pyrrolidin-1-yl]quinoxaline-5-carbonitrile], the pIC50 falls from 7.49 to 7.06 (0.43 log units).

Going from `C[C@H]1CN(c2ccc(C#N)c3ncccc23)C[C@@H]1CN1CCC2(CCNCC2)CC1` [Example 23, 5-[(3S,4R)-3-(3,9-diazaspiro[5.5]undecan-3-ylmethyl)-4-methyl-pyrrolidin-1-yl]quinoline-8-carbonitrile] to `CC(C)[C@@H]1CN(c2ccc(C#N)c3ncccc23)C[C@H]1CN1CCC2(CCNCC2)CC1` (relative stereo) [Example 36, 5-[Trans-3-(3,9-diazaspiro[5.5]undecan-3-ylmethyl)-4-isopropyl-pyrrolidin-1-yl]quinoline-8-carbonitrile], the pIC50 falls from 6.60 to 6.33 (0.27 log units).

`N#Cc1ccc(N2CC(CN3CCC4(CCNC4)C3)C3(CC3)C2)c2cccnc12` (stereo not drawn) [Example 43, 5-[7-(2,7-Diazaspiro[4.4]nonan-2-ylmethyl)-5-azaspiro[2.4]heptan-5-yl]quinoline-8-carbonitrile] and `CC(C)[C@@H]1CN(c2ccc(C#N)c3ncccc23)C[C@H]1CN1CCC2(CCNC2)C1` (relative stereo) [Example 44, 5-[Trans-3-(2,7-diazaspiro[4.4]nonan-2-ylmethyl)-4-isopropyl-pyrrolidin-1-yl]quinoline-8-carbonitrile] are within 0.2 log units of each other in pIC50: 6.05 for the first, 6.02 for the second.

First: N#Cc1ccc(N2C[C@@H](CN3CCC4(CCNCC4)CC3)[C@H](C3CC3)C2)c2cccnc12 (relative stereo) [Example 28, 5-[Trans-3-cyclopropyl-4-(3,9-diazaspiro[5.5]undecan-3-ylmethyl)pyrrolidin-1-yl]quinoline-8-carbonitrile]
Second: C[C@H]1CN(c2ccc(C#N)c3nccnc23)C[C@@H]1CN1CCC2(CCNCC2)CC1 [Example 17, 8-[(3S,4R)-3-(3,9-diazaspiro[5.5]undecan-3-ylmethyl)-4-methyl-pyrrolidin-1-yl]quinoxaline-5-carbonitrile]
The pIC50 of the first is 0.44 log units lower: 6.45 for the first, 6.89 for the second. The second is the more potent here.

First: N#Cc1ccc(N2CC(CN3CCC(N)CC3)C3(CC3)C2)c2nccnc12 (stereo not drawn) [Example 68, 8-[7-[(4-Amino-1-piperidyl)methyl]-5-azaspiro[2.4]heptan-5-yl]quinoxaline-5-carbonitrile]
Second: N#Cc1ccc(N2CC(CN3C4CCC3CC(N)C4)C3(CC3)C2)c2nccnc12 (stereo not drawn) [Example 25, 8-[7-[(3-Amino-8-azabicyclo[3.2.1]octan-8-yl)methyl]-5-azaspiro[2.4]heptan-5-yl]quinoxaline-5-carbonitrile]
The pIC50 of the first is 0.61 log units higher: 7.12 for the first, 6.51 for the second. The first is the more potent here.

Compared with `N#Cc1ccc(N2CCC(CN3CCC4(CCNCC4)CC3)C2)c2nccnc12` (stereo not drawn) [Example 37, 8-[3-(3,9-Diazaspiro[5.5]undecan-3-ylmethyl)pyrrolidin-1-yl]quinoxaline-5-carbonitrile], `FC(F)(F)c1ccc(N2CC(CN3CCC4(CCNCC4)CC3)C3(CC3)C2)c2nccnc12` (stereo not drawn) [Example 31, 3-[[5-[8-(Trifluoromethyl)quinoxalin-5-yl]-5-azaspiro[2.4]heptan-7-yl]methyl]-3,9-diazaspiro[5.5]undecane] is 0.22 log units higher in pIC50: 6.19 for the first, 6.41 for the second. The second is the more potent here.

Going from `N#Cc1ccc(N2C[C@H](CN3CCC(N4CCNCC4)CC3)[C@@H](C(F)(F)F)C2)c2cccnc12` [Example 52, 5-[(3S,4R)-3-[(4-piperazin-1-yl-1-piperidyl)methyl]-4-(trifluoromethyl)pyrrolidin-1-yl]quinoline-8-carbonitrile] to `N#Cc1ccc(N2C[C@H](CN3CC4CCC3CN4)[C@@H](C(F)(F)F)C2)c2nccnc12` (stereo partly drawn) [Example 77, 8-[(3S,4R)-3-(2,5-diazabicyclo[2.2.2]octan-2-ylmethyl)-4-(trifluoromethyl)pyrrolidin-1-yl]quinoxaline-5-carbonitrile], the pIC50 rises from 7.41 to 7.89 (0.48 log units). The second is the more potent here.

Compared with `N#Cc1ccc(N2CC(CN3CC4CCNCC43)C3(CC3)C2)c2nccnc12` (stereo not drawn) [Example 50, 8-[7-(3,8-Diazabicyclo[4.2.0]octan-8-ylmethyl)-5-azaspiro[2.4]heptan-5-yl]quinoxaline-5-carbonitrile], `N#Cc1ccc(N2CC(CN3CCC4NCC4C3)C3(CC3)C2)c2nccnc12` (stereo not drawn) [Example 66, 8-[7-(3,7-Diazabicyclo[4.2.0]octan-3-ylmethyl)-5-azaspiro[2.4]heptan-5-yl]quinoxaline-5-carbonitrile] is 0.57 log units higher in pIC50: 6.63 for the first, 7.20 for the second. The second is the more potent here.
